{"source": "the Kinase Knowledgebase extract (Sharma et al. 2016)", "data": [{"biological_target": "EGFR (human) (UniProt P00533)", "sequence (P00533 whole entry, looked up)": "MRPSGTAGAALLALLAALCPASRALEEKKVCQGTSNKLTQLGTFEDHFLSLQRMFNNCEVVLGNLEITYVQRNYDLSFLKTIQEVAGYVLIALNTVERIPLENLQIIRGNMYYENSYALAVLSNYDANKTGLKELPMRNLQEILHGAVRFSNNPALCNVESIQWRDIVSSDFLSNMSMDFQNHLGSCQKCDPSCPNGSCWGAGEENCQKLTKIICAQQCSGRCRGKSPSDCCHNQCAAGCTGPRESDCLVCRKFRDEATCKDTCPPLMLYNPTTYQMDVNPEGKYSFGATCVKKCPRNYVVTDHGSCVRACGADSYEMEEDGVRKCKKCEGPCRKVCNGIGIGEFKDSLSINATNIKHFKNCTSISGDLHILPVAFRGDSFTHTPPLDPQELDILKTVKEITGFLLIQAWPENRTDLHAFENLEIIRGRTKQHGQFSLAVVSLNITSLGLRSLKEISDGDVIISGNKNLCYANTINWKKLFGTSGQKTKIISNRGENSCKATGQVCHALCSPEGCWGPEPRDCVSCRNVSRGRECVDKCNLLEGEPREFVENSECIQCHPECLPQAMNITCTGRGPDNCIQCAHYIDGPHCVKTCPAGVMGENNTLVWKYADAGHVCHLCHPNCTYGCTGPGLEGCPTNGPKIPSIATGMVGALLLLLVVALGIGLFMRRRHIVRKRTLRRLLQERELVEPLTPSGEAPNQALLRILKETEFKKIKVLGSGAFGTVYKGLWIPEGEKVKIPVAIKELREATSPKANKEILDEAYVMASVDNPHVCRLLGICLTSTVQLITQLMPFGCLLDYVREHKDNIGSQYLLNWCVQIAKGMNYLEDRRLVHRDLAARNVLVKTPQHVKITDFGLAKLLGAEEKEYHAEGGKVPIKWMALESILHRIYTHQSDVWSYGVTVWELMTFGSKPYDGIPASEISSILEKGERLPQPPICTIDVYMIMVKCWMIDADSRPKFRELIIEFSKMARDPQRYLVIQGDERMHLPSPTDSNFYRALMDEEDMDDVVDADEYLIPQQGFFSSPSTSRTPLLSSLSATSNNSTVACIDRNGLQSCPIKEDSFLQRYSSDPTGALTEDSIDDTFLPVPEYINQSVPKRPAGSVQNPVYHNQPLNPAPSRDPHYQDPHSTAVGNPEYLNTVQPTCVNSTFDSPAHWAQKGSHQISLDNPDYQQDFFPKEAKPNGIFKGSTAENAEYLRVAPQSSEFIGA", "details": "a431", "units": {"IC50": "nM"}, "values": [{"smiles": "Cc1c(C=C2C(=O)Nc3cccc(Br)c32)[nH]c2c1C(=O)N(CCN1CCCC1)CC2", "IC50": 200}, {"smiles": "CCN(CC)CCN1CCc2[nH]c(C=C3C(=O)Nc4ccc(-c5ccc(OC)cc5)cc43)c(C)c2C1=O", "IC50": 3890}, {"smiles": "CCN(CC)CCN1CCc2[nH]c(C=C3C(=O)Nc4ccc(NC=O)cc43)c(C)c2C1=O", "IC50": 840}, {"smiles": "Cc1c(C=C2C(=O)Nc3ccc(Cl)cc32)[nH]c2c1C(=O)N(CCN1CCOCC1)CC2", "IC50": 10200}, {"smiles": "CCN(CC)CCN1CCc2[nH]c(C=C3C(=O)Nc4cccc(-c5cccc(Cl)c5F)c43)c(C)c2C1=O", "IC50": 7320}, {"smiles": "Cc1c(C=C2C(=O)Nc3ccc(NC=O)cc32)[nH]c2c1C(=O)N(CCN1CCCCC1)CC2", "IC50": 120}, {"smiles": "Cc1c(C=C2C(=O)Nc3ncc(Br)cc32)[nH]c2c1C(=O)N(CCN1CCOCC1)CC2", "IC50": 15900}, {"smiles": "Cc1c(C=C2C(=O)Nc3cccc(-c4c(F)cccc4F)c32)[nH]c2c1C(=O)N(CCN1CCCCC1)CC2", "IC50": 530}, {"smiles": "Cc1c(C=C2C(=O)Nc3cccc(-c4cccc(Cl)c4F)c32)[nH]c2c1C(=O)N(CCN1CCOCC1)CC2", "IC50": 6110}, {"smiles": "CCN(CC)CCN1CCc2[nH]c(C=C3C(=O)Nc4cc(N)c(F)cc43)c(C)c2C1=O", "IC50": 10500}, {"smiles": "Cc1c(C=C2C(=O)Nc3cccc(C4CCNCC4)c32)[nH]c2c1C(=O)N(CCN1CCOCC1)CC2", "IC50": 1900}, {"smiles": "Cc1c(C=C2C(=O)Nc3ncnc(Nc4ccc(F)c(Cl)c4)c32)[nH]c2c1C(=O)N(CCN1CCOCC1)CC2", "IC50": 330}, {"smiles": "Cc1c(C=C2C(=O)Nc3cccc(CCO)c32)[nH]c2c1C(=O)N(CCN1CCOCC1)CC2", "IC50": 16500}, {"smiles": "CCN(CC)CCN1CCc2[nH]c(C=C3C(=O)Nc4ccc(Cl)cc43)c(C)c2C1=O", "IC50": 1040}, {"smiles": "Cc1c(C=C2C(=O)Nc3cccc(-c4cccc(Cl)c4F)c32)[nH]c2c1C(=O)N(CCN1CCCC1)CC2", "IC50": 13800}, {"smiles": "Cc1c(C=C2C(=O)Nc3cccc(-c4cccc(F)c4F)c32)[nH]c2c1C(=O)N(CCN1CCCC1)CC2", "IC50": 2190}, {"smiles": "Cc1c(C=C2C(=O)Nc3ccc(NS(C)(=O)=O)cc32)[nH]c2c1C(=O)N(CCN1CCOCC1)CC2", "IC50": 2850}, {"smiles": "Cc1c(C=C2C(=O)Nc3cccc(CCO)c32)[nH]c2c1C(=O)N(CCN1CCCC1)CC2", "IC50": 1680}, {"smiles": "CCN(CC)CCN1CCc2[nH]c(C=C3C(=O)Nc4cccc(C5CCNCC5)c43)c(C)c2C1=O", "IC50": 350}, {"smiles": "Cc1c(C=C2C(=O)Nc3cc(NC(=O)CO)c(F)cc32)[nH]c2c1C(=O)N(CCN1CCCCC1)CC2", "IC50": 1250}, {"smiles": "CCN(CC)CCN1CCc2[nH]c(C=C3C(=O)Nc4cccc(-c5cccc(F)c5F)c43)c(C)c2C1=O", "IC50": 380}, {"smiles": "Cc1c(C=C2C(=O)Nc3cc(N)c(F)cc32)[nH]c2c1C(=O)N(CCN1CCCC1)CC2", "IC50": 10700}, {"smiles": "COCC(=O)Nc1cc2c(cc1F)C(=Cc1[nH]c3c(c1-c1ccc(F)cc1)C(=O)NCC3)C(=O)N2", "IC50": 2030}, {"smiles": "Cc1c(C=C2C(=O)Nc3cccc(C4CCNCC4)c32)[nH]c2c1C(=O)N(CCN1CCCC1)CC2", "IC50": 590}, {"smiles": "CCN(CC)CCN1CCc2[nH]c(C=C3C(=O)Nc4cccc(CCO)c43)c(C)c2C1=O", "IC50": 3850}, {"smiles": "O=C(CO)Nc1cc2c(cc1F)C(=Cc1[nH]c3c(c1-c1ccc(F)cc1)C(=O)NCC3)C(=O)N2", "IC50": 3060}, {"smiles": "CCN(CC)CCN1CCc2[nH]c(C=C3C(=O)Nc4cc(NC(C)=O)c(F)cc43)c(C)c2C1=O", "IC50": 9290}, {"smiles": "CCN(CC)CCN1CCc2[nH]c(C=C3C(=O)Nc4ccc(OC)cc43)c(C)c2C1=O", "IC50": 4350}, {"smiles": "CCN(CC)CCN1CCc2[nH]c(C=C3C(=O)Nc4cccc(-c5ccc(Cl)cc5F)c43)c(C)c2C1=O", "IC50": 3230}, {"smiles": "CCN(CC)CCN1CCc2[nH]c(C=C3C(=O)Nc4cccc(Br)c43)c(C)c2C1=O", "IC50": 330}, {"smiles": "Cc1c(C=C2C(=O)Nc3cccc(-c4cccc(F)c4)c32)[nH]c2c1C(=O)N(CCN1CCCCC1)CC2", "IC50": 180}, {"smiles": "CCN(CC)CCN1CCc2[nH]c(C=C3C(=O)Nc4c(N)cc(F)cc43)c(C)c2C1=O", "IC50": 12600}, {"smiles": "Cc1c(C=C2C(=O)Nc3ccc(F)cc32)[nH]c2c1C(=O)N(CCN1CCCC1)CC2", "IC50": 1310}, {"smiles": "CCN(CC)CCN1CCc2[nH]c(C=C3C(=O)Nc4c(NC(C)=O)cc(F)cc43)c(C)c2C1=O", "IC50": 1380}, {"smiles": "CCN(CC)CCN1CCc2[nH]c(C=C3C(=O)Nc4cc(NC=O)c(F)cc43)c(C)c2C1=O", "IC50": 370}, {"smiles": "CCN(CC)CCN1CCc2[nH]c(C=C3C(=O)Nc4c(NC=O)cc(F)cc43)c(C)c2C1=O", "IC50": 1380}, {"smiles": "CCN(CC)CCN1CCc2[nH]c(C=C3C(=O)Nc4ncnc(Nc5ccc(F)c(Cl)c5)c43)c(C)c2C1=O", "IC50": 67}, {"smiles": "Cc1c(C=C2C(=O)Nc3cc(NCc4ccc(F)cc4)c(F)cc32)[nH]c2c1C(=O)N(CCN1CCCCC1)CC2", "IC50": 340}, {"smiles": "Cc1c(C=C2C(=O)Nc3c(Br)cc(F)cc32)[nH]c2c1C(=O)N(CCN1CCCCC1)CC2", "IC50": 270}, {"smiles": "CCN(CC)CCN1CCc2[nH]c(C=C3C(=O)Nc4ccc(Br)cc43)c(C)c2C1=O", "IC50": 1260}, {"smiles": "Cc1c(C=C2C(=O)Nc3ccc(F)cc32)[nH]c2c1C(=O)N(CCN1CCOCC1)CC2", "IC50": 1350}, {"smiles": "CCN(CC)CCN1CCc2[nH]c(C=C3C(=O)Nc4ccc(F)cc43)c(C)c2C1=O", "IC50": 1090}, {"smiles": "Cc1c(C=C2C(=O)Nc3ncc(Br)cc32)[nH]c2c1C(=O)N(CCN1CCCCC1)CC2", "IC50": 1660}]}]}
